# Source: patent US20250115583A1, “BICYCLIC INDAZOLE GLUCOCORTICOID RECEPTOR ANTAGONISTS” (Corcept Therapeutics Incorporated, priority 2021, published 2025)
# Molecular target: glucocorticoid receptor (Homo sapiens (Human), UniProt P04150)
# Test: HepG2 TAT assay: inhibition of dexamethasone-induced tyrosine aminotransferase (TAT) activity
# Format: cell-based
# Details: HepG2 cells, challenge of 100 nM dexamethasone, 18-24 hr; IC50 converted to Ki by Cheng and Prusoff equation
# Outline: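 Cells lysed 15 min at 4 °C; TAT enzyme reaction 2 h at 37 °C, stopped with KOH, 30 min further at 37 °C. Inhibition fitted to 4-parameter logistic.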
# Chain of glucocorticoid receptor (P04150 whole entry): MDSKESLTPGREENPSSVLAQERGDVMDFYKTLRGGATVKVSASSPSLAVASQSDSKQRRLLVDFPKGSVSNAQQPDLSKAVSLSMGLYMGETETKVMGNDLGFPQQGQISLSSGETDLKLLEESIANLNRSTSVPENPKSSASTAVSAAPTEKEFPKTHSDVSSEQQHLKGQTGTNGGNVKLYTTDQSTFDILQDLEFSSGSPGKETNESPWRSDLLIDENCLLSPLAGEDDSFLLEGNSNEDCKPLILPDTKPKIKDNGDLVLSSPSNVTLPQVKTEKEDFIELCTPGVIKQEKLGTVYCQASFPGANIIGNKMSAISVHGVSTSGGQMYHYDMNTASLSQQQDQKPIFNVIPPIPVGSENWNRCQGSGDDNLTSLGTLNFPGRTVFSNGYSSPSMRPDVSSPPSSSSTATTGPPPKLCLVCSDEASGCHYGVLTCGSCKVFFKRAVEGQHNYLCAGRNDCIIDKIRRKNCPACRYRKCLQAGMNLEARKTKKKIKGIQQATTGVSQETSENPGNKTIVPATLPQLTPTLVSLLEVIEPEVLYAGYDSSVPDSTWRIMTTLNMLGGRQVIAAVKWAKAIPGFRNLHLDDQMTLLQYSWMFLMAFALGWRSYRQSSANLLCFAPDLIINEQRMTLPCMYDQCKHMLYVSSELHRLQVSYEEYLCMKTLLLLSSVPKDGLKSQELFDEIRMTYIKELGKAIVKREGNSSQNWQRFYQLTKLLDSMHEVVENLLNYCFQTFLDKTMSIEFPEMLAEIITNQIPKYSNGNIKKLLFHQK
row,SMILES,Ki [nM]
1,Cc1cc2c(cnn2-c2ccc(F)cc2)cc1C12CC(Oc3ccccc3)CC1CN(S(=O)(=O)c1cnn(C)c1)C2 (stereo not shown) [Example 44],370
2,Cc1cc2c(cnn2-c2ccc(F)cc2)cc1C12CC(Oc3ccccc3)CC1CN(C(=O)OC(C)(C)C)C2 (stereo not shown) [Example 45],96
3,"Cc1cc2c(cnn2-c2ccc(F)cc2)cc1C12CC(c3ccccc3)CC1CN(S(C)(=O)=O)C2 (stereo not shown) [Example 46, 1-(4-fluorophenyl)-6-methyl-5-(2-(methylsulfonyl)-5-phenylhexahydrocyclopenta[c]pyrrol-3a(1H)-yl)-1H-indazole]",87
4,"Cc1cc2c(cnn2-c2ccc(F)cc2)cc1C12CN(S(=O)(=O)c3cnn(C)n3)CC1C2CO (stereo not shown) [Example 47, (1-(1-(4-fluorophenyl)-6-methyl-1H-indazol-5-yl)-3-((2-methyl-2H-1,2,3-triazol-4-yl)sulfonyl)-3-azabicyclo[3.1.0]hexan-6-yl)methanol]",270
5,"Cc1cc2c(cnn2-c2ccc(F)cc2)cc1C12CN(S(=O)(=O)c3cnn(C)n3)CC1C2COc1ccccn1 (stereo not shown) [Example 50, 1-(4-fluorophenyl)-6-methyl-5-(3-((2-methyl-2H-1,2,3-triazol-4-yl)sulfonyl)-6-((pyridin-2-yloxy)methyl)-3-azabicyclo[3.1.0]hexan-1-yl)-1H-indazole]",680
6,Cc1cc2c(cnn2-c2ccc(F)cc2)cc1[C@]12CN(S(=O)(=O)c3cnn(C)n3)C[C@H]1[C@@H]2C(=O)NC1CCC1 [Example 60],200
7,Cc1cc2c(cnn2-c2ccc(F)cc2)cc1[C@@]12CN(S(=O)(=O)c3cnn(C)n3)C[C@@H]1[C@H]2C(=O)NC1CCCC1 [Example 61],200
8,Cc1cc2c(cnn2-c2ccc(F)cc2)cc1[C@]12CN(S(=O)(=O)c3cnn(C)n3)C[C@H]1[C@@H]2C(=O)Nc1ccccc1 [Example 62],38
9,Cc1cccc(NC(=O)[C@H]2[C@@H]3CN(S(=O)(=O)c4cnn(C)n4)C[C@@]32c2cc3cnn(-c4ccc(F)cc4)c3cc2C)c1 [Example 63],88
10,Cc1cc2c(cnn2-c2ccc(F)cc2)cc1[C@]12CN(S(=O)(=O)c3cnn(C)n3)C[C@H]1[C@@H]2C(=O)N(C)c1ccccc1 [Example 64],130
11,CCNC(=O)[C@@H]1[C@H]2CN(S(=O)(=O)c3cnn(C)n3)C[C@]21c1cc2cnn(-c3ccc(F)cc3)c2cc1C [Example 65],430
12,Cc1cc2c(cnn2-c2ccc(F)cc2)cc1[C@@]12CN(S(=O)(=O)c3cnn(C)n3)C[C@@H]1[C@H]2C(=O)NCC(C)C [Example 66],150
13,Cc1cc2c(cnn2-c2ccc(F)cc2)cc1[C@@]12CN(S(C)(=O)=O)C[C@@H]1[C@H]2C(=O)Nc1ccc(F)cn1 [Example 67],84
14,Cc1cc2c(cnn2-c2ccc(F)cc2)cc1[C@@]12CN(S(=O)(=O)c3cnn(C)n3)C[C@@H]1[C@H]2c1ccccc1 [Example 70],24
15,Cc1cc2c(cnn2-c2ccc(F)cc2)cc1[C@@]12CN(S(=O)(=O)c3cnn(C)n3)C[C@@H]1[C@H]2c1ccccc1 [Example 71],15
16,Cc1cc2c(cnn2-c2ccc(F)cc2)cc1[C@]12CN(S(=O)(=O)c3cnn(C)n3)C[C@H]1[C@@H]2c1ccccc1 [Example 72],160
17,Cc1cc2c(cnn2-c2ccc(F)cc2)cc1[C@]12CN(S(=O)(=O)c3cnn(C)c3)C[C@H]1[C@@H]2c1ccccc1 [Example 73],36
18,CCn1ncc(S(=O)(=O)N2C[C@H]3[C@H](c4ccccc4)[C@@]3(c3cc4cnn(-c5ccc(F)cc5)c4cc3C)C2)n1 [Example 74],15
19,CCCn1ncc(S(=O)(=O)N2C[C@H]3[C@H](c4ccccc4)[C@@]3(c3cc4cnn(-c5ccc(F)cc5)c4cc3C)C2)n1 [Example 75],25
20,Cc1cc2c(cnn2-c2ccc(F)cc2)cc1[C@@]12CN(S(C)(=O)=O)C[C@@H]1[C@H]2c1ccccc1 [Example 77],39
21,Cc1cc2c(cnn2-c2ccc(F)cc2)cc1[C@]12CN(S(=O)(=O)c3cncc(F)c3)C[C@H]1[C@@H]2c1ccccc1 [Example 78],25
22,COCCn1cc(S(=O)(=O)N2C[C@H]3[C@H](c4ccccc4)[C@@]3(c3cc4cnn(-c5ccc(F)cc5)c4cc3C)C2)cn1 [Example 79],33
23,Cc1cc2c(cnn2-c2ccc(F)cc2)cc1[C@]12CN(S(=O)(=O)c3cnn(C(C)C)n3)C[C@H]1[C@@H]2c1ccccc1 [Example 80],23
24,Cc1cc2c(cnn2-c2ccc(F)cc2)cc1[C@@]12CN(S(=O)(=O)C3CC3)C[C@@H]1[C@H]2c1ccccc1 [Example 85],21
25,COCCS(=O)(=O)N1C[C@@H]2[C@@H](c3ccccc3)[C@]2(c2cc3cnn(-c4ccc(F)cc4)c3cc2C)C1 [Example 86],32

row,SMILES,Ki [nM]
1,Cc1cc2c(cnn2-c2ccc(F)cc2)cc1[C@]12CN(S(=O)(=O)N3CCOCC3)C[C@H]1[C@@H]2c1ccccc1 [Example 87],20
2,Cc1cc2c(cnn2-c2ccc(F)cc2)cc1[C@]12CN(S(=O)(=O)C3CCOCC3)C[C@H]1[C@@H]2c1ccccc1 [Example 88],47
3,Cc1cc2c(cnn2-c2ccc(F)cc2)cc1[C@@]12CN(S(=O)(=O)c3ccccc3)C[C@@H]1[C@H]2c1ccccc1 [Example 89],17
4,Cc1cc2c(cnn2-c2ccc(F)cc2)cc1[C@@]12CN(S(=O)(=O)c3cccnc3)C[C@@H]1[C@H]2c1ccccc1 [Example 90],14
5,Cc1cc2c(cnn2-c2ccc(F)cc2)cc1[C@@]12CN(S(=O)(=O)c3cncs3)C[C@@H]1[C@H]2c1ccccc1 [Example 91],22
6,CCn1ccc(S(=O)(=O)N2C[C@@H]3[C@@H](c4ccccc4)[C@]3(c3cc4cnn(-c5ccc(F)cc5)c4cc3C)C2)n1 [Example 92],9.5
7,Cc1cc2c(cnn2-c2ccc(F)cc2)cc1[C@]12CN(S(=O)(=O)CC3CC3)C[C@H]1[C@@H]2c1ccccc1 [Example 93],29
8,CCS(=O)(=O)N1C[C@@H]2[C@@H](c3ccccc3)[C@]2(c2cc3cnn(-c4ccc(F)cc4)c3cc2C)C1 [Example 94],31
9,Cc1cc2c(cnn2-c2ccc(F)cc2)cc1[C@]12CN(S(=O)(=O)c3cnn(C)c3)C[C@H]1[C@@H]2c1cccc(Cl)c1 [Example 96],110
10,Cc1cc2c(cnn2-c2ccc(F)cc2)cc1[C@]12CN(S(=O)(=O)c3cn(C)nn3)C[C@H]1[C@@H]2c1ccccc1 [Example 97],32
11,Cc1cc2c(cnn2-c2ccc(F)cc2)cc1[C@@]12CN(S(=O)(=O)NCC(C)C)C[C@@H]1[C@H]2c1ccccc1 [Example 100],82
12,Cc1cc2c(cnn2-c2ccc(F)cc2)cc1[C@@]12CN(S(=O)(=O)C(C)C)C[C@@H]1[C@H]2c1ccccc1 [Example 101],41
13,Cc1cc2c(cnn2-c2ccc(F)cc2)cc1[C@@]12CN(S(=O)(=O)N3CCCCC3)C[C@@H]1[C@H]2c1ccccc1 [Example 102],26
14,Cc1cc2c(cnn2-c2ccc(F)cc2)cc1[C@@]12CN(S(=O)(=O)N3CC(C#N)C3)C[C@@H]1[C@H]2c1ccccc1 [Example 103],27
15,Cc1cc2c(cnn2-c2ccc(F)cc2)cc1[C@@]12CN(S(=O)(=O)CC(C)C)C[C@@H]1[C@H]2c1ccccc1 [Example 104],30
16,Cc1cc2c(cnn2-c2ccc(F)cc2)cc1[C@@]12CN(S(=O)(=O)N3CCC3)C[C@@H]1[C@H]2c1ccccc1 [Example 105],14
17,CNS(=O)(=O)N1C[C@@H]2[C@@H](c3ccccc3)[C@]2(c2cc3cnn(-c4ccc(F)cc4)c3cc2C)C1 [Example 106],55
18,Cc1cc2c(cnn2-c2ccc(F)cc2)cc1[C@@]12CN(S(=O)(=O)CC3CCOCC3)C[C@@H]1[C@H]2c1ccccc1 [Example 107],32
19,Cc1cc2c(cnn2-c2ccc(F)cc2)cc1[C@@]12CN(S(=O)(=O)N(C)C)C[C@@H]1[C@H]2c1ccccc1 [Example 108],16
20,COC1CCN(S(=O)(=O)N2C[C@@H]3[C@@H](c4ccccc4)[C@]3(c3cc4cnn(-c5ccc(F)cc5)c4cc3C)C2)CC1 [Example 109],13
21,"Cc1cc2c(cnn2-c2ccc(F)cc2)cc1C12CN(S(=O)(=O)c3cnn(C)n3)CC1C2c1ncco1 (stereo not shown) [Example 133, 2-(1-(1-(4-fluorophenyl)-6-methyl-1H-indazol-5-yl)-3-((2-methyl-2H-1,2,3-triazol-4-yl)sulfonyl)-3-azabicyclo[3.1.0]hexan-6-yl)oxazole]",260
22,"Cc1cc2c(cnn2-c2ccc(F)cc2)cc1[C@@]12CN(S(=O)(=O)c3cnn(C)n3)C[C@@H]1[C@H]2c1nc2ccccc2o1 [Example 134, 2-(1-(1-(4-fluorophenyl)-6-methyl-1H-indazol-5-yl)-3-((2-methyl-2H-1,2,3-triazol-4-yl)sulfonyl)-3-azabicyclo[3.1.0]hexan-6-yl)benzo[d]oxazole]",55
23,"Cc1cc2c(cnn2-c2ccc(F)cc2)cc1[C@]12CN(C(=O)c3cnnn3C)C[C@H]1[C@@H]2c1ccccc1 [Example 144, (1-(1-(4-fluorophenyl)-6-methyl-1H-indazol-5-yl)-6-phenyl-3-azabicyclo[3.1.0]hexan-3-yl)(1-methyl-1H-l,2,3-triazol-5-yl)methanone]",120
24,"Cc1cc2c(cnn2-c2ccc(F)cc2)cc1[C@]12CN(C(=O)c3cn(C)nn3)C[C@H]1[C@@H]2c1ccccc1 [Example 147, (1-(1-(4-fluorophenyl)-6-methyl-1H-indazol-5-yl)-6-phenyl-3-azabicyclo[3.1.0]hexan-3-yl)(1-methyl-1H-l,2,3-triazol-4-yl)methanone]",37
